Data from patent US9815847B2 (Icahn School of Medicine at Mount Sinai, priority 2013, dated 2017).

Columns and labels:
CK2a2 = molecular target: T1, CK2a2 (Homo sapiens, UniProt P19784); test: Kinase inhibition assay; assay type: biochemical; conditions: 10 μM ATP; 5-dose IC50 mode
T1 construct: purchased Reaction Biology Corporation
Description: (§1) Kinase assays were performed at Reaction Biology Corporation. To a freshly prepared buffer solution was added the target kinase at a concentration of […]. The contents were mixed gently, and then compound 8h dissolved in DMSO was added to the reaction mixture in the appropriate concentration. The mixture was incubated at room temperature for 30 min. prior to addition of ATP to initiate the reaction. Compound 8h was tested in a 5-dose IC50 mode with 10-fold serial dilutions starting at 10 μM. For each of the kinases, a control compound in a 10-dose IC50 mode with 3-fold serial dilutions starting at 20 μM. The control compounds were GW5074 (3-(3,5-dibromo-4-hydroxy-benzylidene)-5-iodo-1,3-dihydro-indol-2-one) for BRAF, CK2a and RAF1, D4476 (4-[4-(2,3-dihydro-1,4-benzodioxin-6-yl)-5-(2-pyridinyl)-1H-imidazol-2-yl]benzamide) for CK1d; Wee1 inhibitor (4-(2-chlorophenyl)-9-hydroxypyrrolo[3,4-c]carbazole-1,3-(2H,6H)-dione) for WEE1 and saturosporine for other kinases. Reaction was carried out at 10 μM ATP concentration.

c-Kit = molecular target: T2, c-Kit (Homo sapiens, UniProt P10721); test: Kinase inhibition assay; assay type: biochemical; conditions: 10 μM ATP; 5-dose IC50 mode
T2 construct: purchased Reaction Biology Corporation
Description: as §1

K562 = test: Cytotoxicity assay, dose response end point; assay type: cell-based; conditions: Homo sapiens; K562, chronic myelogenous leukemia; 96 h
Description: (§2) The following tumor cell lines were tested using a dose response end point assay system with compound (8h). The cells were grown in either DMEM or RPMI supplemented with 10% fetal bovine serum and 1 unit/mL Penicillin-Streptomycin solution. The tumor cells were plated into 6-well dishes at a cell density of 1.0×10^5 cells/mL/well and the test compound was added 24 h. later at various concentrations. Cell counts were determined from duplicate wells after 96 h. of treatment. The total number of viable cells was determined by trypan blue exclusion.

Z138C = test: Cytotoxicity assay, dose response end point; assay type: cell-based; conditions: mantle cell lymphoma, 96 h
Description: as §2

U266 = test: Cytotoxicity assay, dose response end point; assay type: cell-based; conditions: Homo sapiens, U-266; U266, multiple myeloma; 96 h
Description: as §2

HT-29 = test: Cytotoxicity assay, dose response end point; assay type: cell-based; conditions: Homo sapiens; HT-29, colonic adenocarcinoma; 96 h
Description: as §2

KG-1a = test: Cytotoxicity assay, dose response end point; assay type: cell-based; conditions: Homo sapiens, acute myelogenous leukemia, 96 h
Description: as §2

32D-T315I = test: Cytotoxicity assay, dose response end point; assay type: cell-based; conditions: chronic myelogenous leukemia, 96 h
Description: as §2

CEM = test: Cytotoxicity assay, dose response end point; assay type: cell-based; conditions: Homo sapiens, CCRF-CEM, T-cell leukemia, 96 h
Description: as §2

MOLT-4 = test: Cytotoxicity assay, dose response end point; assay type: cell-based; conditions: Homo sapiens; MOLT-4, acute lymphoblastic leukemia; 96 h
Description: as §2

DAUDI = test: Cytotoxicity assay, dose response end point; assay type: cell-based; conditions: Homo sapiens, Burkitt's lymphoma, 96 h
Description: as §2

DU145 = test: Cytotoxicity assay, dose response end point; assay type: cell-based; conditions: Homo sapiens, DU-145; DU145, prostate carcinoma; 96 h
Description: as §2

HEL = test: Cytotoxicity assay, dose response end point; assay type: cell-based; conditions: human erythroleukemia, 96 h
Description: as §2

MES-SA = test: Cytotoxicity assay, dose response end point; assay type: cell-based; conditions: Homo sapiens, uterine sarcoma, 96 h
Description: as §2

HL-60 = test: Cytotoxicity assay, dose response end point; assay type: cell-based; conditions: Homo sapiens; HL-60, promyelocytic leukaemia; 96 h
Description: as §2

BT474 = test: Cytotoxicity assay, dose response end point; assay type: cell-based; conditions: Homo sapiens, BT-474; BT474, Breast carcinoma; 96 h
Description: as §2

HELA = test: Cytotoxicity assay, dose response end point; assay type: cell-based; conditions: Homo sapiens, Cervical adenocarinoma, 96 h
Description: as §2

SU.86.86 = test: Cytotoxicity assay, dose response end point; assay type: cell-based; conditions: Homo sapiens; SU.86.86, pancreatic ductal carcinoma; 96 h
Description: as §2

PANC 03.27 = test: Cytotoxicity assay, dose response end point; assay type: cell-based; conditions: Homo sapiens, PANC-03-27; PANC 03.27, Pancreatic adenocarcinoma; 96 h
Description: as §2

HCT-116 = test: Cytotoxicity assay, dose response end point; assay type: cell-based; conditions: Homo sapiens; HCT-116, colon cancer; 96 h
Description: as §2

MES-SA/DX5 = test: Cytotoxicity assay, dose response end point; assay type: cell-based; conditions: Homo sapiens; MES-SA/DX5, Uterine sarcoma; 96 h
Description: as §2

A431 = test: Cytotoxicity assay, dose response end point; assay type: cell-based; conditions: Homo sapiens, A-431; A431, epidermoid carcinoma; 96 h
Description: as §2

MIA-PaCa-2 = test: Cytotoxicity assay, dose response end point; assay type: cell-based; conditions: Homo sapiens; MIA-PaCa-2, pancreatic carcinoma; 96 h
Description: as §2

CEM/C2 = test: Cytotoxicity assay, dose response end point; assay type: cell-based; conditions: Homo sapiens; CEM/C2, T-cell leukemia; 96 h
Description: as §2

CAPAN-1 = test: Cytotoxicity assay, dose response end point; assay type: cell-based; conditions: Homo sapiens; CAPAN-1, pancreatic ductal adenocarcinoma; 96 h
Description: as §2

Nalmalwa = test: Cytotoxicity assay, dose response end point; assay type: cell-based; conditions: Burkitt's lymphoma, 96 h
Description: as §2

RAJI = test: Cytotoxicity assay, dose response end point; assay type: cell-based; conditions: Homo sapiens, Burkitt's lymphoma, 96 h
Description: as §2

HL-60/MX2 = test: Cytotoxicity assay, dose response end point; assay type: cell-based; conditions: Homo sapiens, HL60/MX2; HL-60/MX2, promyelocytic leukaemia; 96 h
Description: as §2

HFL-1 = test: Cytotoxicity assay, dose response end point; assay type: cell-based; conditions: Homo sapiens, HFL1; HFL-1, fetal lung fibroblast; 96 h
Description: as §2

PANC 10.05 = test: Cytotoxicity assay, dose response end point; assay type: cell-based; conditions: Homo sapiens, Panc1005; PANC 10.05, pancreatic adenocarcinoma; 96 h
Description: as §2

HPAF-II = test: Cytotoxicity assay, dose response end point; assay type: cell-based; conditions: Homo sapiens, pancreatic adenocarcinoma, 96 h
Description: as §2

ASPC-1 = test: Cytotoxicity assay, dose response end point; assay type: cell-based; conditions: Homo sapiens, ASPC1; ASPC-1, pancreatic adenocarcinoma; 96 h
Description: as §2

T2 sequence (P10721 26-976): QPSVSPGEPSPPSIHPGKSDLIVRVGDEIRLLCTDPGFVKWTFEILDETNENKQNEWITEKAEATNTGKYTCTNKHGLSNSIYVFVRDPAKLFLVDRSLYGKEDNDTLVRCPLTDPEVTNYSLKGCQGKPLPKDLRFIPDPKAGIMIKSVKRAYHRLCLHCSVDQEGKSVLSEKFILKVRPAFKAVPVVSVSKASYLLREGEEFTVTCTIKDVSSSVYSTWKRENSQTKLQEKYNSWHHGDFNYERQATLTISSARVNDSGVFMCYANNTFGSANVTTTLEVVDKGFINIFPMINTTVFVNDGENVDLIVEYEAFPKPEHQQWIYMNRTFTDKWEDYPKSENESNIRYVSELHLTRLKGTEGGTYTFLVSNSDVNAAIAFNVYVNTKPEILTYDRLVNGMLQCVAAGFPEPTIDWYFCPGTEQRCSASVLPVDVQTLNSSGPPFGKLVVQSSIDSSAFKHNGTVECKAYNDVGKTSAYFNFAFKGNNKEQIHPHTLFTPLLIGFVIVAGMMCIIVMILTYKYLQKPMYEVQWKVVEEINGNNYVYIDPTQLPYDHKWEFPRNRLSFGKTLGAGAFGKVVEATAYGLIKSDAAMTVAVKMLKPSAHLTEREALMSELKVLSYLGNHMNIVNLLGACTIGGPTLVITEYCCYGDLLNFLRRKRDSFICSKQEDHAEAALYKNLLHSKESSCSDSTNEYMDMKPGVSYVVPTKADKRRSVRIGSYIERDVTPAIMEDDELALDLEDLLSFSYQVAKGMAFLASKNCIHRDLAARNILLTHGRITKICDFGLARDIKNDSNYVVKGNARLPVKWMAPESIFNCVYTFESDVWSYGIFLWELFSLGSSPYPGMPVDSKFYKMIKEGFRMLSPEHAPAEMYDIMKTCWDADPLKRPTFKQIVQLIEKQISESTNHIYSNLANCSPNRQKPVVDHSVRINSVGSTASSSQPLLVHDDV
T1 sequence (P19784 whole entry): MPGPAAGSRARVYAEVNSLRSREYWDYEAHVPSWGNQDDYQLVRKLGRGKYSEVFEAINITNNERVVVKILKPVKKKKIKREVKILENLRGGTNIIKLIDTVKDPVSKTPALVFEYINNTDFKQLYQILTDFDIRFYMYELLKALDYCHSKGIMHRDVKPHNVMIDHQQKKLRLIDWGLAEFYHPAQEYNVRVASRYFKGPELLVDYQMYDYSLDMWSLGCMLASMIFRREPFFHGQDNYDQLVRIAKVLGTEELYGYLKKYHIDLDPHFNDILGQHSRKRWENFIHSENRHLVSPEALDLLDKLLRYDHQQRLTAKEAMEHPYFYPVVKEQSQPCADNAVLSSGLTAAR

IC50 (CK2a2): 100 to 1000 nM
IC50 (c-Kit): 100 to 1000 nM
SMILES: CN1CCN(c2ccc(Nc3ncc(/C=C/C#N)c(NC4CCCC4)n3)cc2)CC1 [Compound 8h, 3-{4-Cyclopentylamino-2-[4-(4-methylpiperazin-1-yl)phenylamino]pyrimidin-5-yl}acrylonitrile]
GI50 (K562): 40 nM
GI50 (Z138C): 3000 nM
GI50 (U266): 1000 nM
GI50 (HT-29): 50 nM
GI50 (KG-1a): < 20 nM
GI50 (32D-T315I): 500 nM
GI50 (CEM): 1500 nM
GI50 (MOLT-4): 100 nM
GI50 (DAUDI): 100 nM
GI50 (DU145): < 500 nM
GI50 (HEL): < 250 nM
GI50 (MES-SA): 20 nM
GI50 (HL-60): 500 nM
GI50 (BT474): 2500 nM
GI50 (HELA): > 5000 nM
GI50 (SU.86.86): 5000 nM
GI50 (PANC 03.27): 3000 nM
GI50 (HCT-116): 500 nM
GI50 (MES-SA/DX5): < 20 nM
GI50 (A431): 100 nM
GI50 (MIA-PaCa-2): > 5000 nM
GI50 (CEM/C2): 1500 nM
GI50 (CAPAN-1): 100 nM
GI50 (Nalmalwa): 200 nM
GI50 (RAJI): < 20 nM
GI50 (HL-60/MX2): 250 nM
GI50 (HFL-1): 100 nM
GI50 (PANC 10.05): > 5000 nM
GI50 (HPAF-II): 5000 nM
GI50 (ASPC-1): > 5000 nM
